This note sets out measurements from patent US20060270737A1, “Menthol propyleneglycol-carbonate and analogs thereof as insect pest repellents” (priority 2003, published 2006).

Holding throughout (type): in vivo
In assay [1] the test system is Adult mosquitoes (Culex quinquefasciatus). The assay can be described thus: Mosquito chamber test, protection time until first bite on lotion-coated arms of human volunteers. Conditions: for Protection Time: 5 wt % in lotion base, elbow to fingertips of human volunteers, time to first bite, mean ± SEM, 4 volunteers. How it is done:
Adult mosquitoes (Culex quinquefasciatus) were kept inside a screened chamber measuring 2 ft×2 ft×2 ft at a density of 200 mosquitoes per chamber. The mosquitoes are aged 3 to 10 days after emergence from larvae and were starved for 24 hours prior to each test. Each of the test compounds (supplied as a gift from Symrise GmbH & Co Kg, Holzminden, Germany) was added to a commercial lotion base (Cresto Laboratories, […], Philippines) and thoroughly mixed into the lotion using an electronic mixer. The resulting formulation was applied from the elbow to the tip of the fingers of human volunteers. The coated arms of the volunteers were then inserted, in turn, inside the chamber up to the elbow. The protection time was determined for each formulation as the length of time until a mosquito had taken its first bite, after which the test was terminated. The data in Table 1 show the protection time determined in this manner for the compounds tested.

Another assay concerns mosquitoes. The assay can be described thus: Standard mosquito chamber test of halloysite-entrapped and free active in aloe vera cream. The settings on record: 20% w/w in aloe vera cream, forearm, 3 human volunteers; in min. How it is done: This study was conducted to evaluate the suitability of encapsulation or entrapment as a means of reducing the amount of racemic menthol propyleneglycol-carbonate required to produce a repellent effect and to provide a means of protecting the active material from degradation by other excipients in the formulation or from high temperatures associated with manufacturing, as in the case of impregnation of textile materials. The halloysite clay represents an example of many other suitable encapsulation materials available in the industry and is not intended as a limitation of the scope of this invention.
Halloysite clay is a naturally derived, nontoxic, biodegradable material typically used in the manufacture of porcelain, bone china and fine china. U.S. Pat. No. 5,651,976 to Price and Gaber describes a new method of controlled release using microtubules made from halloysite clay. […] The halloysite entrapped racemic menthol propyleneglycol-carbonate used in this study was supplied as a gift from Federal Technology Group (Bozeman, Mont.), with a total entrapped active material determined at 17% of the total weight. […] Protection time was measured as the time at which the human subject experienced the first mosquito bite. […]

The next assay deals with mosquito. The assay can be described thus: Outdoor mosquito tests, protection time on exposed arms of human volunteers. Conditions: outdoors from 3:00 PM, 3 human volunteers per group, test chemical 10% w/w in ointment base, ± SEM. How it is done:
To validate the efficacy of menthol propyleneglycol-carbonate under ambient conditions in nature, this chemical was mixed in an ointment base at 10% w/w and applied to the exposed arms of human volunteers who remained outdoors during the peak period of mosquito biting, beginning at 3:00 PM. The protection time was recorded and compared with that obtained from human volunteers using a commercially available insect repellent (OFF! Skintastic; 7% DEET) manufactured by SC Johnson & Sons, Inc. (Racine, Wis.). Control ointment consisted of Fougera ointment without any active ingredient. The protection time was determined for 3 human volunteers for each test group.

The test system of the next assay is mosquito biting activity. The assay can be described thus: Mosquito chamber protection time of combinations with DEET and citronella product (Natrapel). Conditions: both at 10% w/w in hydrophilic ointment base, arms of 3 human volunteers. How it is done:
To test the effectiveness of menthol propyleneglycol-carbonate(menthol propyleneglycol-carbonate) in enhancing the effect of the known insect repellent DEET against mosquito biting activity, this study was undertaken by combining racemic menthol propyleneglycol-carbonate with DEET (purchased from Sigma-Aldrich). The two chemicals were added at 10% w/w in an Hydrophilic ointment base (E. Fougera & Co., Melville, N.Y.) and applied on the exposed arms of human volunteers. The treated arms were inserted inside a mosquito chamber and the protection time was determined. […] The recorded data represents the mean and standard error of 3 human volunteers.
To test the effectiveness of menthol propyleneglycol-carbonate in enhancing the effect of another known mosquito repellent product, an experiment was undertaken in Which menthol propyleneglycol-carbonate was added at a concentration of 10% w/w to a citronella-based product (Natrapel) manufactured by Tender Corporation (Littleton, N.H.).

The subject of the next assay is fire ants (s. invicta). The assay can be described thus: Fire ant bait protection test. Conditions: 50% (v/v) in ethanol sprayed on peanut butter bait, 4 replicates, terminated after 5 hours. How it is done:
In this study, the repellent effect of racemic menthol propyleneglycol-carbonate was examined by preparing a solution of this chemical in ethanol at concentration of 50% (v/v). The solution was sprayed with a pump spray dispenser ([…] & Associates, Duarte, Calif.) to a bait composed of sugary food (in this case, peanut butter). The control was composed of ethanol alone. This study was conducted in Fort Pierce, Fla. The protection time was measured as the time when the first ant started consuming the bait. […] The experiment was terminated after 5 hours of observation. Each study group was composed of 4 replicates. In the control which was sprayed with ethanol alone, the fire ants (s. invicta) were seen on the bait within 3 minutes after the spray was applied.

Assay [2] relates to stable fly or dog fly (Stomoxys calcitrans). The assay can be described thus: Stable flies landing on sprayed meat bait. How it is done:
To test the effectiveness of racemic menthol propylene glycol carbonate, a 50% solution was prepared in 95% ethanol and sprayed using a standard spray bottle. Stable flies were collected by placing a screened cage containing (Peaceful Valley Farm Supply, Grass Valley, Calif.) bait beside a horse stable one day prior to the test. Approximately 200 stable flies were collected from each cage. The test bait comprising pieces of beef was placed in an aluminum pan at the bottom of the collecting cage. The test was conducted using meat sprayed with 50% racemic menthol propyleneglycol-carbonate solution, with a control composed of meat sprayed with ethanol alone. The test was conducted in duplicate. The number of stable flies landing and feeding on the meat was counted periodically.

Assay [3] has as its system red ant (pharaoh ant, Monomorium pharaonis). The assay can be described thus: Ant repellent test, impregnated filter paper barrier around table leg. Conditions: mean ± SEM of 5 tests. How it is done: The red ant (pharaoh ant, Monomorium pharaonis) was selected for this ant repellent test since it has a worldwide distribution and is known to be a household pest. Red ants are attracted to the smell of food. The attractant in this experiment was a piece of chocolate, which was placed on a tabletop 5 hours before the test. Within 2 hours after being released on the ground around the table, the red ants established a route from the ground up the table legs. At the 5th hour, a filter paper impregnated with racemic menthol propyleneglycol-carbonate at two concentrations was placed around the middle portion of the table leg. The test compound was dissolved in ethanol and impregnated into a pre-weighed, 2 inch by 7 inch piece of filter paper. After complete evaporation of ethanol, the filter paper was weighed and the final weight of the test compound was determined per cm^2 of the filter paper. The control employed was the same filter paper soaked with ethanol only. The time for the first ant to cross the filter paper barrier was determined.

The subject of assay [4] is milk termite, Coptotermes vastator. The assay can be described thus: Inhibition of termite infestation, weight loss of impregnated soft wood. How it is done: The milk termite, Coptotermes vastator, is a pest found in tropical and sub-tropical areas. To test the efficacy of racemic menthol propyleneglycol-carbonate, this chemical was dissolved in 95% ethanol at concentration of 10% w/w and pieces of pre-weighed soft wood were immersed in the solution for 24 hours. After impregnation, the wood was allowed to dry in air to remove the ethanol which has a lower flash point. The dry wood was reweighed to determine the total amount of racemic menthol propyleneglycol-carbonate absorbed into the wood. The weight of racemic menthol propyleneglycol-carbonate absorbed was 26 milligrams per gram of wood. Controls were prepared using wood impregnated with 95% ethanol alone.
The wood test samples were placed on top of a fallen jackfruit tree (Artocarpus heterophylla) heavily infested by termites under ambient, natural, outdoor conditions for a period of 2 months. At the end of the test period, the wood samples were cleaned of debris and termites, dried in the sun and weighed. The degree of wood preservation was determined by the amount of weight loss during the test period.

As for `CC1CCC(C(C)C)C(O)C1` (stereo not shown) [1-menthol, 1-5-methyl-2-isopropyl cyclohexanol, reference compound], the “Protection Time” value in assay [1] was determined as 30 ± 9 min.
With `CC(O)COC(=O)OC1CC(C)CCC1C(C)C` (racemic) [racemic menthol propyleneglycol-carbonate], the “PROTECTION TIME (Mean ± SEM)” value in the assay on mosquitoes was determined as 93 ± 6. Further, the “Protection Time” value with mosquito was 227 ± 19 min; in the assay with fire ants (s. invicta), “at least 5 hours”; with fire ants (s. invicta) (listed as Racemic menthol propyleneglycol-carbonate) it was over 5 h; in assay [1], 283 ± 17 min. In the assay with mosquito biting activity, the “protection time / repellent effect of combination with DEET versus either compound alone (FIG. 3)” value is reported as “greater protection time”. Also, the “effectiveness in preventing mosquito bites relative to menthol or isopulegol” value in assay [1] (from Table I protection times, 5 wt % in lotion) is “almost nine times more effective”. In addition, the “inhibitory effect on mosquito bite (FIG. 1)” value in assay [1] (lotion containing various concentrations) is on record as “dose dependent manner”. Moreover, the “time by which the spray lost its efficacy” value in assay [2] (from the initial single application of 50% spray) is at most 9 h. The “time the spray remained very effective” value in assay [2] (single application of 50% spray on meat) is recorded as “at least 5 hours”. Moreover, the “Time to cross barrier” value in assay [3] (15 mg/cm^2 on filter paper) amounted to 63 ± 18 min; in assay [3] (30 mg/cm^2 on filter paper), 760 ± 76 min. For the same molecule, the “termite consumption of the wood” value in assay [4] (impregnated wood, 2 months) is “completely prevented from consuming the wood”. In addition, the “Percent of weight loss” value in assay [4] (soft wood impregnated from 10% w/w ethanol solution (26 mg per gram of wood), 2 months outdoors on termite-infested tree) turned out to be 0.8 ± 0.4%.
In the case of `CC1CCC(C(C)C)C(OC(=O)OCCCCCCCCCO)C1` (stereo not shown) [menthyl-9-hydroxynonyl-carbonate], the “Protection Time” value in assay [1] was determined as 79 ± 14 min.
Same read-out and setting: the result for `C=C(C)C1CCC(C)CC1O` (single isomer, unassigned; (-)) [(−)-isopulegol, 5-methyl-2-(1-methylethenyl) cyclohexanol, reference compound] reads 56 ± 7 min.
The same measure, in the same setting: the same measure for isopulegol propyleneglycol-carbonate: 152 ± 36 min; for `CC1CCC(C(C)C)C(OCC(O)CO)C1` (stereo not shown) [menthoxy-propane-1,2-diol]: 68 ± 17 min.
